# Results reported in publication PMC10892836, “Hybrid Molecules of Azithromycin with Chloramphenicol and Metronidazole: Synthesis and Study of Antibacterial Properties” (Pharmaceuticals, 2024).
# “And” between values parts separate entries of the source, which are not always exact repeats. Equal entries are not always repeated.
# What was measured:
# [1] = system: Escherichia coli ATCC 25922; assay: MIC, broth microdilution (CLSI); assay type: cell-based; conditions: ATCC25922, E. coli ATCC 25922
# Procedure: (§1) Minimum inhibitory concentration (MIC) values for facultative anaerobic bacteria were determined using the broth microdilution method outlined in the CLSI guidelines. Initially, all compounds were dissolved in dimethyl sulfoxide (DMSO) to achieve a concentration of 10 mg/mL. Subsequently, they were diluted with the Mueller–Hinton nutrient broth (MHB) supplemented with 5% defibrinated horse blood (for Streptococcus spp.) to a concentration of 64 μg/mL. Following 2-fold serial dilutions of the substances, bacterial cultures in the log growth phase were added to 96-well plates at a concentration of 2.5–5 × 10^5 CFU/mL, and the plates were incubated at 37 °C for 16–20 h.
# (§2) Minimum inhibitory concentration (MIC) was defined as the lowest concentration of a chemical compound that inhibits the visible growth of the bacterial strain. At least three replicates of MIC measurements were performed.
# [2] = system: Staphylococcus aureus ATCC 29213; assay: MIC, broth microdilution (CLSI); assay type: cell-based; conditions: ATCC29213, S. aureus ATCC 29213
# Procedure: as §1, §2
# [3] = system: Streptococcus agalactiae 1Cp; assay: MIC, broth microdilution (CLSI); assay type: cell-based; conditions: S. agalactiae 1Cp
# Procedure: as §1, §2
# [4] = system: Streptococcus pneumoniae ATCC 49619; assay: MIC, broth microdilution (CLSI); assay type: cell-based
# Procedure: as §1, §2
# [5] = system: Clostridium sporogenes ATCC 19404; assay: MIC, agar dilution, anaerobic bacteria (CLSI M11-A9); assay type: cell-based; conditions: ATCC19404, C. sporogenes ATCC 19404, anaerobic
# Procedure: The antimicrobial activity against anaerobic bacteria was evaluated using the agar dilution method in accordance with the CLSI document M11-A9 [58]. Twofold serial dilutions of compounds, at 10 times the desired concentration, were prepared in water and diluted (1:10) with the Brucella Agar medium containing 5% defibrinated horse blood, 5 mg/L hemin, and 1 mg/L vitamin K. The resulting plates were inoculated with approximately 10^5 CFU per spot using a replicator and incubated anaerobically at 36 °C for 48 h.
# as §2
# [6] = system: Propionibacterium acnes 55; assay: as above; assay type: cell-based; conditions: Cutibacterium acnes; P. acnes 55, anaerobic clinical isolate
# E. coli ΔtolC pERMZα = assay: MIC, broth microdilution, E. coli ΔtolC panel; assay type: cell-based; conditions: Escherichia coli
# Procedure: (§3) The E. coli ΔtolC strain was also transformed with the pErmC, pErmCL-ErmC, and pERMZα plasmids. The resulting strains were grown at 37 °C in LB medium supplied with 100 μg/mL ampicillin.
# (§4) MIC values for a panel of E. coli ΔtolC strains were determined via the broth microdilution assay as described here with minor modifications. Briefly, the overnight E. coli culture was diluted to an OD600 of 0.01 in the fresh LB medium supplied with 100 μg/mL ampicillin, if required. Then, the cells were additionally incubated for 1–1.5 h at 37 °C with shaking at 200 rpm (Shaker-Incubator ES-20/80, BioSan, Riga, Latvia). Meanwhile, 100 μL of the liquid growth medium was placed in each well of a 96-well sterile plate (200 μL was placed in column 1). Solutions of tested compounds were added in the first column of the plate at 2 times the final concentration of 200 μg/mL. Then, 2-fold serial dilutions were performed. Immediately before use, bacterial inoculum was diluted (1:100) in the growth medium, and 100 μL of it was transferred in each well except for the sterility control column. The plate was incubated overnight (16–20 h) at 37 °C with constant shaking at 200 rpm (Shaker-Incubator ES-20/80, BioSan, Riga Latvia). Cell growth was assessed by scanning the OD600 with a VICTOR X5 Multilabel Plate Reader (PerkinElmer, Waltham, MA, USA).
# as §2
# E. coli ΔtolC pErmC = assay: MIC, broth microdilution, E. coli ΔtolC panel; assay type: cell-based; conditions: Escherichia coli
# Procedure: as §3, §4, §2
# [7] = system: E. coli ΔtolC pErmCL-ErmC; assay: MIC, broth microdilution, E. coli ΔtolC panel; assay type: cell-based; conditions: for MIC: Escherichia coli
# Procedure: In order to create the construct pErmCL-ErmC, the vector backbone was amplified using pZa-fwd (5′-TAAGAATTCTCTAGCCCG-3′) and pZa-rev (5′-[…]-3′) primers, and the pERMZα plasmid as a template. The ermC gene was amplified from the pERMCTP plasmid with ErmC-fwd (5′-[…]-3′) and ErmC-rev (5′-TAGGCGGGCTAGAGAATTC-3′) primers. The joining of two DNA fragments was performed using the NEBuilder® HiFi DNA Assembly Master Mix (New England Biolabs, Ipswich, MA, USA). Sequences of intermediate products and the final construct were confirmed by Sanger sequencing with appropriate primers.
# as §3, §4, §2
# E. coli ΔtolC = assay: MIC, broth microdilution, E. coli ΔtolC panel; assay type: cell-based; conditions: for MIC: Escherichia coli
# Excerpt: The E. coli JW5503 strain with a deletion of the tolC gene (referred to here as E. coli ΔtolC) was kindly provided by Prof. Hironori Niki, National Institute of Genetics, Japan. The E. coli BW25113 strain with a partial deletion of the lptD gene, codons 330 to 352 (referred to here as E. coli lptD^mut) was kindly provided by Prof. Alexander S. Mankin, University of Illinois, Chicago, IL, USA [44]. The E. coli ΔtolC strain was transformed with the pDualrep2 (Amp^R) plasmid, whereas the E. coli lptD^mut strain was transformed with the pDualrep2 (Kan^R) plasmid (not yet published). Both E. coli strains were grown at 37 °C in Luria–Bertani (LB) medium supplemented with either 100 μg/mL ampicillin or 50 μg/mL kanamycin.
# as §4, §2
# [8] = system: Streptococcus pneumoniae ATCC 6305; assay: MIC, broth microdilution (CLSI); assay type: cell-based; conditions: ATCC6305, S. pneumoniae ATCC 6305, Table S3
# Procedure: To evaluate the antimicrobial activity of hybrid molecules, clinical and reference strains obtained from the Laboratory of Medical Microbiology of the State Scientific Center of Antibiotics (Moscow, Russia) were used. The activity of azithromycin derivatives conjugated with chloramphenicol was tested on the following reference strains: Streptococcus pneumoniae ATCC 49619, Staphylococcus aureus ATCC 29213, and Escherichia coli ATCC 25922. Additionally, azithromycin derivatives conjugated with metronidazole were tested on the Streptococcus agalactiae 1Cp strain, Streptococcus pneumoniae ATCC 6305 strain (see Table S3, Supplementary Materials), on the anaerobic Gram-positive Clostridium sporogenes ATCC 19404 strain, and Propionibacterium acnes 55 clinical isolate.
# as §1, with “Following 2-fold serial dilutions of the substances, bacterial cultures in the log growth phase were added to 96-well plates at a concentration of 2.5–5 × 10^5 CFU/mL, and the plates were incubated at 37 °C for 16–20 h.” left out
# [9] = system: cell-free bacterial translation system based on the E. coli S30 lysate; assay: In vitro translation in a cell-free bacterial system (firefly luciferase synthesis); assay type: biochemical; conditions: final concentration 5 μM; water control = 100%
# Procedure: The inhibition of firefly luciferase (Fluc) synthesis by new azithromycin derivatives was assessed with the E. coli S30 Extract System for Linear Templates (Promega, Madison, WI, USA). Each reaction (5 μL total volume) was supplied with 0.1 mM mixture of all canonical amino acids, 4 U of RiboLock RNase Inhibitor (Thermo Fisher Scientific, Waltham, MA, USA), 0.1 mM of D-luciferin (Sigma-Aldrich, Burlington, MA, USA), 50 ng of firefly luciferase (Fluc) mRNA, and a chemical compound at a final concentration, as indicated in the main text, or nuclease-free water instead. Before the addition of mRNA, reaction tubes were pre-incubated at RT for 5 min and then placed back on ice. After the addition of mRNA, reaction mixtures were immediately subjected to continuous chemiluminescence measurement using the VICTOR X5 Multilabel Plate Reader (PerkinElmer, Waltham, MA, USA) at 37 °C for 30 min. Maximal rates of the firefly luciferase (Fluc) accumulation were calculated using the OriginPro 7.5 software. The values were normalized to a positive control (nuclease-free water, assigned a value of 100%). The results were visualized using the QtiPlot software (version 0.9.8.9).
# 70S E. coli ribosomes = assay: Competition-binding assay with BODIPY-ERY (fluorescence anisotropy); conditions: displacement of BODIPY-ERY; means, 95% confidence intervals; read-out: Apparent dissociation constant KD
# Procedure: Affinity of compounds to the 70S E. coli ribosomes (isolated from the E. coli MRE600 strain according to a published procedure) was evaluated with a competition-binding assay using fluorescently labeled erythromycin (BODIPY-ERY) as described earlier. Briefly, BODIPY-ERY (16 nM) was mixed with ribosomes (34 nM) in 384-well plates in the buffer containing 20 mM HEPES-KOH (pH 7.5), 50 mM NH4Cl, 10 mM Mg(CH3CO2)2, 4 mM β-mercaptoethanol, and 0.05% (v/v) Tween-20. Solutions of the tested compounds were added to the obtained complexes to final concentrations from 1 to 1000 nM and incubated for 2 h at 30 °C. The values of fluorescence anisotropy were obtained using the VICTOR X5 Multilabel Plate Reader (PerkinElmer, Waltham, MA, USA). Filters of 485 and 535 nm were used for excitation and emission, respectively. To calculate the apparent dissociation constants, the assumption that the competitive equilibrium binding of two ligands occurs at a single binding site was used. For each compound, at least 2 replicates were performed. Values of apparent dissociation constants are given as means with 95% confidence intervals. The results were visualized using the GraphPad Prism software (version 8.0.1).
# [10] = system: ribosome stalling on ermCL mRNA; assay: Toe-printing (primer extension inhibition) analysis on ermCL mRNA; assay type: biochemical; conditions: 50 μM (chloramphenicol 30 μM)
# Procedure: The toe-printing (primer extension inhibition) analysis of azithromycin derivatives was carried out essentially as previously described with some minor modifications, as indicated below. The DNA template ErmCL was generated by PCR using two overlapping primers, ErmCL-fwd (5′-[…]-3′) and ErmCL-rev (5′-[…]-3′). Before the addition of the DNA template to reaction mixtures at the in vitro translation step, tubes were pre-incubated at RT for 5 min. Moreover, phenol-chloroform extraction of reverse transcription products was replaced with DNA purification using the QIAquick® PCR Purification Kit (Qiagen, Hilden, Germany) according to the manufacturer’s protocol.
# Figure 4 Toe-printing (or primer extension inhibition) analysis of azithromycin derivatives on ermCL mRNA. Ribosome stalling is detected via reverse transcription in a cell-free bacterial transcription–translation coupled system. The toe-printing bands are marked with colored arrowheads, and the A-site codons (except for the start codon, P-site codon is indicated) occupied by the stalled ribosomes are indicated in the mRNA sequence with the corresponding colors. The stop codon is marked with an asterisk. All compounds but chloramphenicol (CLM) were tested at 50 μM. Chloramphenicol (CLM) was tested at 30 μM. DMSO was used as a negative control at 0.25% final concentration. Thiostrepton (THS) was used to indicate the translation start site.
# [11] = ATCC49619, S. pneumoniae ATCC 49619, Tables 2 and 3
compound,measurement,setting,value
"CC[C@H]1OC(=O)[C@H](C)[C@@H](O[C@H]2C[C@@](C)(OC)[C@@H](O)[C@H](C)O2)[C@H](C)[C@@H](O[C@@H]2O[C@H](C)C[C@H](N(C)C)[C@H]2O)[C@](C)(O)C[C@@H](C)CN(C)[C@H](C)[C@@H](O)[C@]1(C)O [AZT, azithromycin]",MIC,[1],2 µg/mL
same,MIC,[2],0.5 µg/mL
same,MIC,[3]; Table 3,0.015 µg/mL
same,MIC,"[3]; Table S3, comparison with 2′-O-deacetyl metabolites",0.03 µg/mL
same,MIC,"[4]; ATCC49619, S. pneumoniae ATCC 49619, Table S3, comparison with 2′-O-deacetyl metabolites",0.03 µg/mL
same,MIC,[4]; [11],0.06 µg/mL
same,MIC,[5],4 µg/mL
same,MIC,[6],< 0.06 µg/mL
same,MIC,E. coli ΔtolC pERMZα,0.8 µg/mL
same,MIC,E. coli ΔtolC pErmC,> 200 µg/mL
same,Fold increase in the MIC value on E. coli ΔtolC pErmCL-ErmC compared to E. coli ΔtolC,[7],4 fold
same,MIC,[7],3.1 µg/mL
same,MIC,E. coli ΔtolC,0.8 µg/mL
same,MIC,[8],0.03 µg/mL
same,Relative luciferase activity (relative maximal rate of Fluc accumulation),[9],0.3%
same,Kd,70S E. coli ribosomes,0.4 ± 0.1 nM
same,Ribosome stalling pattern on ermCL mRNA,[10],induces ribosome stalling when GUA (Val) or AGC (Ser) codons enter the A-site of the ribosome
"CC[C@H]1OC(=O)[C@H](C)[C@@H](O[C@H]2C[C@@](C)(OC)[C@@H](OC(=O)NCCN)[C@H](C)O2)[C@H](C)[C@@H](O[C@@H]2O[C@H](C)C[C@H](N(C)C)[C@H]2OC(C)=O)[C@](C)(O)C[C@@H](C)CN(C)[C@H](C)[C@H]2OC(=O)O[C@@]21C [compound 6, 2′-O-Acetyl-4′′-O-((2-aminoethyl)carbamoyl)-11,12-cyclic carbonate of azithromycin]",MIC,[1],> 32 µg/mL
same,MIC,[2],32 µg/mL
same,MIC,[4]; [11],> 32 µg/mL
same,MIC,E. coli ΔtolC pERMZα,3.1 µg/mL
same,MIC,E. coli ΔtolC pErmC,> 200 µg/mL
same,MIC,[7],6.3 µg/mL
same,MIC,E. coli ΔtolC,3.1 µg/mL
same,"Times weaker than the parental antibiotic (azithromycin), MIC",E. coli ΔtolC; toward E. coli strains (Table 4),2–4 times
same,Relative luciferase activity (relative maximal rate of Fluc accumulation),[9],46%
same,Kd,70S E. coli ribosomes,6.5 nM and 6 nM
same,Ribosome stalling pattern on ermCL mRNA,[10],premature ribosome stalling at the first Phe codon (UUU)
